Target: T1, mouse ENT-1 transporter (Mus musculus, UniProt Q9JIM1)
T1 construct: expressed in transfected cells
T1 sequence (Q9JIM1 1-460): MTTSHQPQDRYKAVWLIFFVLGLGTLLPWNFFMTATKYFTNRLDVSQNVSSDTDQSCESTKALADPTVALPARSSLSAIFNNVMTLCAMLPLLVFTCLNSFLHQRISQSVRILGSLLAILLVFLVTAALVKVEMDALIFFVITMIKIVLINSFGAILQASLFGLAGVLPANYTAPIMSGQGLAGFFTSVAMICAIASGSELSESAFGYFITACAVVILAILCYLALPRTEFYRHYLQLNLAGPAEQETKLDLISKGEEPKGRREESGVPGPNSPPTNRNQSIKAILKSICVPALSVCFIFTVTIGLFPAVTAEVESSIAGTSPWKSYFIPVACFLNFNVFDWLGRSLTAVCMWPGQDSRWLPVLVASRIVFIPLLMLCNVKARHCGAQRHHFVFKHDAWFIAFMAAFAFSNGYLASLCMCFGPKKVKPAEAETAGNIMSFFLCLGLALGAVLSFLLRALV
Experiment: ENT1 adenosine uptake inhibition ([3H]-adenosine transport activity)
Format: cell-based
Conditions: stable cells expressing mouse ENT-1; [2,8-3H]-adenosine 6 nM, 20 min
Method: To measure adenosine transport activity of ENT-1 mammalian cells, stable cells expressing the mouse ENT-1 transporter were plated on day 1 in 96-well culture plates at the density of 60,000 cells/well, in complete DMEM/F12 medium supplemented with glutamax, 10% FBS and 10 μg/ml puromycin. On day 2, the medium was aspirated and the cells were washed twice with uptake buffer (10 mM Hepes-Tris, pH 7.4 containing 150 mM NaCl, 1 mM CaCl2, 2.5 mM KCl, 2.5 mM MgSO4, 10 mM D-glucose) (UB). For inhibition experiments, cells were then incubated at RT with various concentrations of compounds with 1% DMSO final. Non-specific uptake was defined in the presence of 10 μM S-(4-Nitrobenzyl)-6-thioinosine (NBTI, Sigma Cat #N2255).
A solution containing [2,8-^3H]-adenosine 6 nM (40 Ci/mmol, American Radiolabeled chemicals Inc, Cat #ART 0287A) was then immediately added to the wells. The plates were then incubated for 20 min with gentle shaking and the reaction was stopped by aspiration of the mixture and washing (three times) with ice-cold UB. The cells were lysed by the addition of scintillation liquid, shaken 3 hours and the radioactivity in the cells was estimated using a microplates scintillation counter (TopCount NXT, Packard).

Row | Compound | IC50
1 | COc1cc(N2C(=O)C(C)(C)c3ccc(-c4cnc(C)nc4)cc32)cnc1C [Example 3, 1-(5-Methoxy-6-methylpyridin-3-yl)-3,3-dimethyl-6-(2-methylpyrimidin-5-yl)indolin-2-one] | 242 nM
2 | COc1cccc(N2C(=O)C(C)(C)c3ccc(-c4cnc(C)nc4)cc32)c1 [Example 6, 1-(3-Methoxyphenyl)-3,3-dimethyl-6-(2-methylpyrimidin-5-yl)indolin-2-one] | 289 nM
3 | Cc1ncc(-c2ccc3c(c2)N(c2cnc4c(c2)OCCN4)C(=O)C3(C)C)cn1 [Example 8, 1-(3,4-Dihydro-2H-pyrido[3,2-b][1,4]oxazin-7-yl)-3,3-dimethyl-6-(2-methylpyrimidin-5-yl)indolin-2-one] | 951 nM
4 | COc1cnc(N2C(=O)C(C)(C)c3ccc(-c4cnc(C)nc4)cc32)cn1 [Example 11, 1-(5-Methoxypyrazin-2-yl)-3,3-dimethyl-6-(2-methylpyrimidin-5-yl)indolin-2-one] | 272 nM
5 | Cc1ncc(-c2ccc3c(c2)N(c2ccc(O)nn2)C(=O)C3(C)C)cn1 [Example 13, 1-(6-Hydroxypyridazin-3-yl)-3,3-dimethyl-6-(2-methylpyrimidin-5-yl)indolin-2-one] | 615 nM
6 | COc1ncc(N2C(=O)C(C)(C)c3ccc(-c4cnc(C)nc4)cc32)cn1 [Example 15, 1-(2-Methoxypyrimidin-5-yl)-3,3-dimethyl-6-(2-methylpyrimidin-5-yl)indolin-2-one] | 843 nM
7 | Cc1ncc(-c2ccc3c(c2)N(c2ccc(OCC(F)(F)F)nc2)C(=O)C3(C)C)cn1 [Example 16, 3,3-Dimethyl-6-(2-methylpyrimidin-5-yl)-1-(6-(2,2,2-trifluoroethoxy)pyridin-3-yl)indolin-2-one] | 811 nM
8 | Cc1ncc(-c2ccc3c(c2)N(c2cnc(OC4COC4)nc2)C(=O)C3(C)C)cn1 [Example 17, 3,3-Dimethyl-6-(2-methylpyrimidin-5-yl)-1-(2-(oxetan-3-yloxy)pyrimidin-5-yl)indolin-2-one] | 823 nM
9 | COc1cncc(N2C(=O)C3(CCC3)c3ccc(-c4cnc(C)nc4)cc32)c1 [Example 19, 1′-(5-Methoxypyridin-3-yl)-6′-(2-methylpyrimidin-5-yl)spiro[cyclobutane-1,3′-indolin]-2′-one] | 785 nM

These reach a lower IC50. Values come first.

Row | IC50 | Compound
10 | 183 nM | Cc1ncc(-c2ccc3c(c2)N(c2cncc(OC(C)C)c2)C(=O)C3(C)C)cn1 [Example 7, 1-(5-Isopropoxypyridin-3-yl)-3,3-dimethyl-6-(2-methylpyrimidin-5-yl)indolin-2-one]
11 | 154 nM | COc1cc(N2C(=O)C(C)(C)c3ccc(-c4cnc(C)nc4)cc32)cnc1Cl [Example 9, 1-(6-Chloro-5-methoxypyridin-3-yl)-3,3-dimethyl-6-(2-methylpyrimidin-5-yl)indolin-2-one]
12 | 139 nM | COc1cc(N2C(=O)C(C)(C)c3ccc(-c4cnc(C)nc4)cc32)cnc1C1CC1 [Example 10, 1-(6-Cyclopropyl-5-methoxypyridin-3-yl)-3,3-dimethyl-6-(2-methylpyrimidin-5-yl)indolin-2-one]
13 | 130 nM | COc1ccc(N2C(=O)C3(CCC3)c3ccc(-c4cnc(C)nc4)cc32)nn1 [Example 20, 1′-(6-Methoxypyridazin-3-yl)-6′-(2-methylpyrimidin-5-yl)spiro[cyclobutane-1,3′-indolin]-2′-one]
14 | 118 nM | Cc1ncc(-c2ccc3c(c2)N(c2ccc(OC(F)(F)F)cn2)C(=O)C3(C)C)cn1 [Example 14, 3,3-Dimethyl-6-(2-methylpyrimidin-5-yl)-1-(5-(trifluoromethoxy)pyridin-2-yl)indolin-2-one]
15 | 110 nM | COc1cc(N2C(=O)C(C)(C)c3ccc(-c4cnc(C)nc4)cc32)nc(OC)n1 [Example 4, 1-(2,6-Dimethoxypyrimidin-4-yl)-3,3-dimethyl-6-(2-methylpyrimidin-5-yl)indolin-2-one]
16 | 73 nM | COc1cncc(N2C(=O)C(C)(C)c3ccc(-c4cnc(C)nc4)cc32)n1 [Example 1, 1-(6-Methoxypyrazin-2-yl)-3,3-dimethyl-6-(2-methylpyrimidin-5-yl)indolin-2-one]
17 | 64.3 nM | CCOc1cncc(N2C(=O)C(C)(C)c3ccc(-c4cnc(C)nc4)cc32)c1 [Example 5, 1-(5-Ethoxypyridin-3-yl)-3,3-dimethyl-6-(2-methylpyrimidin-5-yl)indolin-2-one]
18 | 50.9 nM | Cc1ncc(-c2ccc3c(c2)N(c2ccc4onc(C)c4c2)C(=O)C3(C)C)cn1 [Example 18, 3,3-Dimethyl-1-(3-methylbenzo[d]isoxazol-5-yl)-6-(2-methylpyrimidin-5-yl)indolin-2-one]

— patent US10457667B2, “Indolin-2-one derivatives” (Hoffmann-La Roche Inc., priority 2015, dated 2019)
